# Reference: patent US20240376076A1, “INHIBITORS TARGETING UBIQUITIN SPECIFIC PROTEASE 7 (USP7)” (Dana-Farber Cancer Institute, Inc., priority 2021, published 2024)
# Where two headings read alike, the source gives them in different places.
# Experiments:
# [1] = plasma stability (Plasma Assay Protocol); type: in vitro ADME; details: 37° C., t1/2 extrapolated if >50% remaining at 60 min, ∞ if near 100% remaining
# Experimental: ND refers to not disclosed.
# • 1. Preheated 0.05 M sodium phosphate and 0.07 M NaCl buffer, pH 7.4. Dissolved 14.505 g/L Na2HPO4·12H2O, 1.483 g/L NaH2PO4·2H2O and 4.095 g/L NaCl in deionized water. The basic solution was then titrated with the phosphoric acid to pH 7.40. Stored in fridge up to 7 days. Checked pH on the day of experiment and adjust if outside specification of 7.4+/−0.1. • 2. Plasma preparation: • Thawed frozen plasma by placing at 37° C. quickly. Centrifuged plasma at 3,000 rpm for 8 minutes to remove clots, pipetted and pooled the supernatant as the plasma to be used in the experiment. Checked and recorded the pH of the plasma. Only used plasma within the range of pH 7.4 to pH 8. If higher than pH 8, discarded the plasma. By using a 5% CO2 incubator and PBS buffer, a pH of 7.4 was reached after the 4 hour equilibrium dialysis time. Put the plasma on ice until used. • 3. Tested compounds and reference compounds spiking solution: • 0.5 mM test compounds spiking solution A: Added 10 μL of 10 mM test compounds stock solution to 190 μL DMSO. • 0.02 mM spiking solution B: Added 40 μL of spiking solution A to 960 μL of […] Sodium phosphate buffer with 0.5% BSA.
# Pre-warmed the plasma and spiking solution B at 37° C. for 5 min. Added 10 μL of pre-warmed spiking solution B into the wells designated for all the time points (5, 15, 30, 45, 60 min).
# For 0-min, added 400 μL of acetonitrile (ACN) containing the internal standard (IS) to the wells of 0-min plate and then added 90 μL of plasma. Added 90 μL of pre-warmed plasma into the wells designated for the time points (0, 5, 15, 30, 45, 60 min), and started timing. At 5, 15, 30, 45, 60 min, added 400 μL of ACN containing IS to the wells of corresponding plates, respectively, to stop the reaction. After quenching, shook the plates at the vibrator (IKA, MTS 2/4) for 10 min (600 rpm/min) and then centrifuged at 5594 g for 15 min (Thermo Multifuge×3R). Transferred 50 μL of the supernatant from each well into a 96-well sample plate containing 50 μL of ultra pure water (Millipore ZMQS50F01) for LC/MS analysis.
# [2] = mouse liver microsomal stability (Microsome Assay Protocol); type: in vitro ADME; details: pH 7.4; mouse liver microsomes, NADPH, 37° C.; read-out: MLM t1/2, min
# Summary of the method: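 Compound at 1.5 μM was mixed with 0.75 mg/mL mouse liver microsomes in 0.1 M potassium phosphate, 1.0 mM EDTA, pH 7.4, then started with NADPH from a 6 mM stock after 5 min preincubation at 37 °C. Samples taken at 0, 5, 15, 30 and 45 min were quenched with acetonitrile containing internal standard and analysed by LC/MS.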
# [3] = molecular target: T1, USP7, Active human recombinant protein (Homo sapiens, UniProt Q93009); experiment: USP7 assay (Ubiquitin-Rhodamine 110 enzymatic assay); type: biochemical
# T1 construct: purchased CP Lot; 20200225001
# T1 sequence (Q93009 whole entry): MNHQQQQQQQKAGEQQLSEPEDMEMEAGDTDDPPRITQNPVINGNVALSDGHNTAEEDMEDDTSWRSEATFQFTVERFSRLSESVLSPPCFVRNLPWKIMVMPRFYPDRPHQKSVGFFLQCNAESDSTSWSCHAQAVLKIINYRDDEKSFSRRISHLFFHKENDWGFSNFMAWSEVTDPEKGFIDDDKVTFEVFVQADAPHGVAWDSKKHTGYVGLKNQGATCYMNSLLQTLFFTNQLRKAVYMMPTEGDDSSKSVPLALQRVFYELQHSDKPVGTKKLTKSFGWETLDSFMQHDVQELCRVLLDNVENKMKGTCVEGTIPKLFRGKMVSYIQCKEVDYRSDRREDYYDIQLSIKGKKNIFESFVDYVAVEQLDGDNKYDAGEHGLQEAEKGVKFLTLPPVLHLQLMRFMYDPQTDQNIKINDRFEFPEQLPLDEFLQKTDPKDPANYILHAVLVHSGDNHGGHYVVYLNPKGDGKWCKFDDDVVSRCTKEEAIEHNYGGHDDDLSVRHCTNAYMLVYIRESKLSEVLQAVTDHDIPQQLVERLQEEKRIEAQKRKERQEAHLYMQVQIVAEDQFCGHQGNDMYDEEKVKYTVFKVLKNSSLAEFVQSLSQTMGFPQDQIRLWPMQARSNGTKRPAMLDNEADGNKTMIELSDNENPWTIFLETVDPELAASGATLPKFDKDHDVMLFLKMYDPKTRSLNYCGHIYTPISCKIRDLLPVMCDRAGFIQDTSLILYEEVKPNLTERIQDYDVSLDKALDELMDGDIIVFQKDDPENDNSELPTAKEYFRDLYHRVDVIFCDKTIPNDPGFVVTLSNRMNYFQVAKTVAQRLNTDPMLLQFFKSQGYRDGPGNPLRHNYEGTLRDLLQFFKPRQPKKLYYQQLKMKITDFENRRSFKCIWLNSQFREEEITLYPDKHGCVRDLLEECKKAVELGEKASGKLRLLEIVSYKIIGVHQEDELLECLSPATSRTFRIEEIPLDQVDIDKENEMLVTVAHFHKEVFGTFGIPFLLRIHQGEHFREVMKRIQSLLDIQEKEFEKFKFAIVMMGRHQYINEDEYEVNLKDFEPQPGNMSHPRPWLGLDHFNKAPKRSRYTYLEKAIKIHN
# Summary of the method: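 Human recombinant USP7 (0.05 nM final) preincubated with compound, 10-point 3-fold series, 15 min at RT. Reaction started with 190 nM ubiquitin-rhodamine 110. Fluorescence (ex 485/em 535 nm) read kinetically 20 min. Slopes normalized to enzyme+substrate and substrate-only controls; IC50 from curve fit.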
half-life at 2 µM [1] [min],half-life at 1 µM [2] [min],IC50 ([3]; read-out: IC50) [µM],"Plasma t1/2, min [1]","IC50 ([3]; 1 h, read-out: IC50, μM (1 h)) [µM]","IC50 ([3]; 6 h, read-out: IC50, μM (6 h)) [µM]","IC50 ([3]; 16 h, read-out: IC50, μM (16 h)) [µM]",SMILES
320,18,0.1 to 1,–,–,–,–,"CN1CCN(CCC(=O)Nc2ccc3c(=O)n(CC4(O)CCN(C(=O)[C@@H](CCCNC(=O)c5ccc6c(Cl)cc(-c7ccc(F)cc7)nc6c5)Cc5ccccc5)CC4)cnc3c2)CC1 [Compound 5, (S)—N-(4-benzyl-5-(4-hydroxy-4-((7-(3-(4-methylpiperazin-1-yl)propanamido)-4-oxoquinazolin-3(4H)-yl)methyl)piperidin-1-yl)-5-oxopentyl)-4-chloro-2-(4-fluorophenyl)quinoline-7-carboxamide]"
234,10.5,0.02 to 0.1,–,–,–,–,CCc1cc(Cl)c2ccc(C(=O)NCCCC(Cc3ccccc3)C(=O)N3CCC(O)(Cn4cnc5cc(NC(=O)CCN(C)C)ccc5c4=O)CC3)cc2n1 (centres unmarked) [Compound 79]
305,45.3,0.1 to 1,–,–,–,–,CN(C)CCOc1cc(F)c2c(=O)n(CC3(O)CCN(C(=O)C4CCN(CCNC(=O)c5ccc6c(Cl)ccnc6c5)CC4c4ccccc4)CC3)cnc2c1 (centres unmarked) [Compound 112]
–,6.96,0.02 to 0.1,∞*,–,–,–,CN1CCC(OCCOc2ccc3c(=O)n(CC4(O)CCN(C(=O)[C@H](CCCNC(=O)c5ccc6c(Cl)cc(C7CC7)nc6c5)Cc5ccccc5)CC4)cnc3c2)CC1 [Compound 132]
6.8,39,–,–,0.1 to 1,< 0.02,< 0.02,C=CC(=O)Nc1ccncc1N1CCC(C(=O)N2CCC(O)(Cn3cnc4cc(NC(=O)CCN5CCN(C)CC5)ccc4c3=O)CC2)C(c2ccccc2)C1 (centres unmarked) [Compound 106]
77.3,14.6,< 0.02,–,–,–,–,CN(C)CCC(=O)Nc1ccc2c(=O)n(CC3(O)CCN(C(=O)C(CCCC(=O)Nc4ccc5c(Cl)ccnc5c4)Cc4ccccc4)CC3)cnc2c1 (centres unmarked) [Compound 78]
85.9,223,< 0.02,–,–,–,–,CN(C)CCCOc1ccc2c(=O)n(CC3(O)CCN(C(=O)[C@@H](CCCNC(=O)c4ccc5c(Cl)c(C(N)=O)cnc5c4)Cn4ccc(F)n4)CC3)cnc2c1
702,4.13,< 0.02,–,–,–,–,CN(C)CCC(=O)Nc1ccc2c(=O)n(CC3(O)CCN(C(=O)[C@H](CCCNC(=O)c4ccc5c(Cl)c6c(nc5c4)CCC6)Cc4ccccc4)CC3)cnc2c1 [Compound 114]
1.31,30.8,0.1 to 1,–,–,–,–,CN1CCN(CCC(=O)Nc2ccc3c(=O)n(CC4(O)CCN(C(=O)C5CCN(c6cccc7c6CN(C#N)C7)C[C@H]5c5ccccc5)CC4)cnc3c2)CC1 (some centres unmarked) [Compound 94]
396,2.46,< 0.02,–,–,–,–,CN(C)CCCOc1ccc2c(=O)n(CC3(O)CCN(C(=O)C(CCCNC(=O)c4ccc5c(Cl)c6c(nc5c4)CCCC6)Cn4ccc(F)n4)CC3)cnc2c1 (centres unmarked)
178,24.3,< 0.02,–,–,–,–,CN(C)C1CCN(c2ccc3c(=O)n(CC4(O)CCN(C(=O)[C@H](CCCNC(=O)c5ccc6c(Cl)cc(C7CC7)nc6c5)Cc5ccccc5)CC4)cnc3c2)CC1 [Compound 123]
> 500,2,< 0.02,–,–,–,–,CN1CCN(CCC(=O)Nc2ccc3c(=O)n(CC4(O)CCN(C(=O)[C@@H](CCCNC(=O)c5ccc6c(Cl)c7c(nc6c5)CCCC7)Cc5ccccc5)CC4)cnc3c2)CC1
60.8,23.2,< 0.02,–,–,–,–,CN(C)CCC(=O)Nc1ccc2c(=O)n(CC3(O)CCN(C(=O)C(CCCNC(=O)c4ccc5c(F)ccnc5c4)Cc4ccccc4)CC3)cnc2c1 (centres unmarked) [Compound 87]
28.9,44.1,< 0.02,–,–,–,–,CN(C)CCCOc1ccc2c(=O)n(CC3(O)CCN(C(=O)[C@H](CCCNC(=O)c4ccc5c(Cl)c(C(=O)NC6CC6)cnc5c4)Cc4ccccc4)CC3)cnc2c1
394,0.56,< 0.02,–,–,–,–,O=C(NCCCC(Cn1ccc(F)n1)C(=O)N1CCC(O)(Cn2cnc3ccccc3c2=O)CC1)c1ccc2c(Cl)c3c(nc2c1)CCCC3 (centres unmarked)
328,11,0.02 to 0.1,–,–,–,–,CN1CCN(CCC(=O)Nc2ccc3c(=O)n(CC4(O)CCN(C(=O)C(CCCNC(=O)c5ccc6c(Cl)ccnc6c5)Cc5ccccc5)CC4)cnc3c2)CC1 (centres unmarked)
149,101,> 1,–,–,–,–,CN(C)CCCOc1ccc2c(=O)n(CC3(O)CCN(C(=O)[C@H](Cc4ccccc4)N(C)CCNC(=O)c4ccc5c(Cl)c(C(N)=O)cnc5c4)CC3)cnc2c1
194,12.3,0.02 to 0.1,–,–,–,–,CN(C)CCC(=O)Nc1ccc2c(=O)n(CC3(O)CCN(C(=O)C(CCCNC(=O)c4ccc5c(Cl)ccnc5c4)Cc4ccccc4)CC3)cnc2c1 (centres unmarked) [Compound 62]
188,17,< 0.02,–,–,–,–,CN(C)CCCOc1ccc2c(=O)n(CC3(O)CCN(C(=O)C(CCCNC(=O)c4ccc5c(Cl)cc(C6CC6)nc5c4)Cn4ccc(F)n4)CC3)cnc2c1 (centres unmarked)
226,3090,0.02 to 0.1,–,–,–,–,CN1CCN(c2ccc3c(=O)n(CC4(O)CCN(C(=O)[C@H](CCCNC(=O)c5ccc6c(Cl)cc(C7CC7)nc6c5)Cc5ccccc5)CC4)cnc3c2)CC1 [Compound 122]
10.3,14.7,< 0.02,–,–,–,–,C=CS(=O)(=O)Nc1ccccc1N1CCC(C(=O)N2CCC(O)(Cn3cnc4cc(NC(=O)CCN5CCN(C)CC5)ccc4c3=O)CC2)[C@H](c2ccccc2)C1 (some centres unmarked) [Compound 93]
102,22.4,< 0.02,–,–,–,–,O=C(NCCN1CCC(C(=O)N2CCC(O)(Cn3cnc4cc(OCCN5CCNCC5)ccc4c3=O)CC2)C(c2ccccc2)C1)c1ccc2c(F)ccnc2c1 (centres unmarked) [Compound 109]
161,1.73,0.02 to 0.1,–,–,–,–,CN(C)CCC(=O)Nc1ccc2c(=O)n(CC3(O)CCN(C(=O)C(CCc4ncc(-c5ccc6c(Cl)ccnc6c5)o4)Cc4ccccc4)CC3)cnc2c1 (centres unmarked) [Compound 77]
10.5,49.3,0.02 to 0.1,–,–,–,–,"C=CS(=O)(=O)Nc1ccccc1-c1ccc(C(=O)N2CCC(O)(Cn3cnc4cc(NC(=O)CCN5CCN(C)CC5)ccc4c3=O)CC2)cc1 [Compound 23, N-(3-((4-hydroxy-1-(2′-(vinylsulfonamido)-[1,1′-biphenyl]-4-carbonyl)piperidin-4-yl)methyl)-4-oxo-3,4-dihydroquinazolin-7-yl)-3-(4-methylpiperazin-1-yl)propanamide]"
335,2.97,0.02 to 0.1,–,–,–,–,CN(C)CCC(=O)Nc1ccc2c(=O)n(CC3(O)CCN(C(=O)C(CCCNC(=O)c4ccc5c(Cl)c6c(nc5c4)C4CCC6C4)Cc4ccccc4)CC3)cnc2c1 (centres unmarked) [Compound 91]
–,27.1,< 0.02,∞*,–,–,–,CN(C)CCCOc1ccc2c(=O)n(CC3(O)CCN(C(=O)C(CCCNC(=O)c4ccc5c(Cl)cc(C6CC6)nc5c4)Cc4ccccc4)CC3)cnc2c1 (centres unmarked) [Compound 116]
67.4,69.4,< 0.02,–,–,–,–,CN(C)CCC(=O)Nc1ccc2c(=O)n(CC3(O)CCN(C(=O)[C@@H]4CCN(CCNC(=O)c5ccc6c(Cl)ccnc6c5)C[C@H]4c4ccccc4)CC3)cnc2c1 [Compound 75]
186,8.3,0.02 to 0.1,–,–,–,–,CN(C)CCC(=O)Nc1ccc2c(=O)n(CC3(O)CCN(C(=O)C(CCCNC(=O)N4CCc5c(Cl)ccnc5C4)Cc4ccccc4)CC3)cnc2c1 (centres unmarked) [Compound 43]
112,46.6,< 0.02,–,–,–,–,CN(C)CCCOc1ccc2c(=O)n(CC3(O)CCN(C(=O)[C@H](CCCNC(=O)c4ccc5c(Cl)c(C(N)=O)cnc5c4)Cc4ccccc4)CC3)cnc2c1
